Values quoted from earlier work in patent publication US5569647A, “Angiopeptin cyclopeptide compounds” (Adir et Compagnie, priority 1993, dated 1996).

Test system: cells of the vascular smooth muscle
Settings: rat carotid artery, desiccation of the endothelium in air

angiopeptin
anti-proliferative effect in vivo on cells of the vascular smooth muscle: anti-proliferative effect in vivo
